Measured values published in patent US12383623B2, “Liquid pharmaceutical compositions of polypeptide conjugates and methods of uses thereof” (BEIJING QL BIOPHARMACEUTICAL CO., LTD., priority 2022, dated 2025).

Experiments:
[1] = Body weight loss in C57 lean mice after a single s.c. dose; assay type: in vivo, C57BL/6 mice; settings: 30 nmol/kg s.c. once
Experimental: Method: 10 week old male C57BL/6 mice were injected subcutaneously with protein once on Day1. Body weight was measured daily and five animals were used for each treatment group. Body weight was monitored for each individual animal. % BW loss=100*(BW on Day n-BW on Day 1)/(BW on Day 1). […] The area under the curve for body weight loss (%) from 0 until 8 days (AUC ΔBW 0-8d) was calculated.

db/db mice = assay: Non-fasting glucose in db/db mice after a single s.c. dose; assay type: in vivo
Experimental: Method: 10 weeks old male db/db mice were injected subcutaneously with GLP-1 polypeptide conjugate once. […] Delta blood glucose is glucose subtracted by baseline level. […] The area under the curve for delta blood glucose from 0 until 192 hours (AUCΔ8G 0-192 h) was calculated.

human serum albumin = human serum albumin (Homo sapiens, UniProt P02768); assay: Human serum albumin binding by surface plasmon resonance (Biacore 8K); settings: human serum albumin bound to CM5 chip
Sequence of human serum albumin (P02768 25-609): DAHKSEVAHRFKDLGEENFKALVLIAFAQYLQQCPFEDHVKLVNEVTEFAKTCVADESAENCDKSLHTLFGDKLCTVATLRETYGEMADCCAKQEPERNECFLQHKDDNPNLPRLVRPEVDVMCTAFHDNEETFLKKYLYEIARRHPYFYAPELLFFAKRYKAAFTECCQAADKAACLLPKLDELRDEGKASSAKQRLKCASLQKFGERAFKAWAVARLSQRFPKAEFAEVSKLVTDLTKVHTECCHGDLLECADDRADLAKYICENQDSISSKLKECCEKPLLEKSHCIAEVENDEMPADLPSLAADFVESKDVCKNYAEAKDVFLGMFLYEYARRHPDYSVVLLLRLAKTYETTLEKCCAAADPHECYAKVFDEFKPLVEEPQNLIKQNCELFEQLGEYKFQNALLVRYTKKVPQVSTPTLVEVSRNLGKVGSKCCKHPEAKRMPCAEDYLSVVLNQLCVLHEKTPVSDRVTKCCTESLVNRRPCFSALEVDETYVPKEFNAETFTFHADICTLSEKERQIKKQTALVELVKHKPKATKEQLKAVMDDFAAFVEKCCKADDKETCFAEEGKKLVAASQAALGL
Experimental: Method: Binding of molecules to serum albumin was characterized by surface plasmon resonance in a Biacore 8K instrument. Serum albumin from different species was covalently bound to CM5 sensor chips surface until 4000 RU was reached. The chip was blocked by 1M ethanolamine with flowrate of 10 μL/min for 420 s. Each molecule sample was diluted and injected at a flow rate of 30 μL/min to allow for binding to chip-bound albumin for 120 s and for dissociation for 300 s. Binding buffer without molecule was sent over the chip at the flow rate of 20 seconds to allow spontaneous dissociation of bound molecule for 30 seconds.

GLP-1 receptor = GLP-1 receptor (Homo sapiens, UniProt P43220); settings: J. Med. Chem. 2015, 58, 7370-7380; cited from earlier work
Sequence of GLP-1 receptor (P43220 24-463, species assumed): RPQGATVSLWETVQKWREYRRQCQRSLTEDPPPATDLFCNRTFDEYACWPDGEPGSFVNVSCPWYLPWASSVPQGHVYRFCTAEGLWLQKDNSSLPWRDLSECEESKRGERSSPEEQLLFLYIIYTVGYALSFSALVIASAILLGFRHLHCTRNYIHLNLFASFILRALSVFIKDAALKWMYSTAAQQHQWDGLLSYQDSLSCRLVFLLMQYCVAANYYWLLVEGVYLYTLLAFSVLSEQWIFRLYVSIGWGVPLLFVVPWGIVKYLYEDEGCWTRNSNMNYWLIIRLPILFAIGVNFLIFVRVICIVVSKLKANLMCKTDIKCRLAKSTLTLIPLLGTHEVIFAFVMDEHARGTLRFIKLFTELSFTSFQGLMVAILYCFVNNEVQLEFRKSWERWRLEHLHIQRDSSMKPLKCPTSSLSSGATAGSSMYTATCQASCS

Semaglutide [reference compound]
AUC ΔBW 0-8 d ([1]; Study 1 (FIG. 1A)): −9.3 day*% | AUC ΔBW 0-8 d ([1]; Study 2 (FIG. 1B)): −13.2 day*% | AUCΔBG 0-192 h (db/db mice; 3 nmol/kg s.c. once): -317.0 mmol·h/L | AUCΔBG 0-192 h (db/db mice; 10 nmol/kg s.c. once): -583.4 mmol·h/L | AUCΔBG 0-192 h (db/db mice; 30 nmol/kg s.c. once): -527.1 mmol·h/L | Rmax (human serum albumin): 55.2 RU | Loss in GLP-1 receptor binding in presence of human serum albumin relative to unconjugated counterpart (GLP-1 receptor): 939 fold
